# Results as given in patent publication US10124065B2, “Lipids and lipid compositions for the delivery of active agents” (Novartis AG, priority 2013, dated 2018).
# Like-named read-outs stand apart in the source and are kept apart here.
# Columns and labels:
# [1] = Particle size of lipid nanoparticle (dynamic light scattering, Malvern Zetasizer); type: physicochemical
# Text: The lipid nanoparticles have a size of about 1 to about 2,500 nm, about 1 to about 1,500 nm, about 1 to about 1,000 nm, in a sub-embodiment about 50 to about 600 nm, in a sub-embodiment about 50 to about 400 nm, in a sub-embodiment about 50 to about 250 nm, and in a sub-embodiment about 50 to about 150 nm. Unless indicated otherwise, all sizes referred to herein are the average sizes (diameters) of the fully formed nanoparticle, as measured by dynamic light scattering on a Malvern Zetasizer. The nanoparticle sample is diluted in phosphate buffered saline (PBS) so that the count rate is approximately 200-400 kcts. The data is presented as a weighted average of the intensity measure. Unless indicated otherwise, all particle size measurements referred to in Tables 4 and 5 are the Z-average particle size of the fully formed nanoparticle, as measured by dynamic light scattering on a Malvern Zetasizer. The nanoparticle sample was diluted in phosphate buffered saline (PBS) so that the count rate is approximately 200-400 kcts.
# [2] = Polydispersity index (PDI) of lipid nanoparticle (dynamic light scattering); type: physicochemical
# Description: Unless indicated otherwise, all PDIs referred to herein are the PDI of the fully formed nanoparticle, as measured by dynamic light scattering on a Malvern Zetasizer. The nanoparticle sample was diluted in phosphate buffered saline (PBS) so that the count rate was approximately 200-400 kcts. The data is presented in Tables 4 and 5 as a weighted average of the intensity measure.
# PLK-1 mRNA = assay: LS411N Xenograft Assay; type: in vivo, Nu/Nu mice; details: percent knock down of PLK-1 mRNA vs control in LS411N tumors, IV 3 mg/kg daily for three days
# Description: Female Nu/Nu mice (6-8 weeks old) were implanted subcutaneously with 5×10^6 LS411N cells. Tumor growth was monitored by caliper measurement before treatment initiation. Mice bearing 150-250 mm^3 subcutaneous tumors were randomized and enrolled in the study. The stock siRNA formulations were diluted to […] with PBS for dosing. Animals enrolled in different groups received a single daily bolus IV injection of 3 mg/kg siRNA for three days. Tumors were harvested 24 hours post last injection to assess target gene regulation by qRT-PCR.
# Lipid nanoparticles comprising lipid compounds of formula (I) and the PLK1-424 siRNA duplex sequence listed above were tested in the LS411N Xenograft Assay. The results of this assay are given in Table 5 below as a percent knock down of PLK-1 mRNA as compared to the control when administered as a single daily dose for three days at a dose of 3 mg/kg.
# [3] = tested on: plasma Factor VII enzyme activity; assay: Mouse Factor VII dosing / Factor VII Activity Assay; type: in vivo; details: percent knock down of plasma Factor VII activity, CD-1 mice, 48 h; for KD FVII 0.3 mg/kg: single IV dose 0.3 mg/kg, LNP Chol/DSPC/PEG-DMG 45/44/9/2; for KD FVII 0.03 mg/kg: single IV dose 0.03 mg/kg, LNP Chol/DSPC/S010 45/44/9/2
# Outline: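 Female CD-1 mice (~25 g) received a single IV tail-vein dose of lipid-nanoparticle-formulated Factor VII siRNA (0.3 or 0.03 mg/kg). Plasma taken ~48 h later; FVII activity measured chromogenically against vehicle-control plasma standard curve, reported as % knockdown.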
# [4] = tested on: respiratory syncytial virus F protein; assay: Immunization studies, anti-RSV-F titers; type: in vivo; details: anti-RSV-F titer, BALB/c, course A = days 0 & 21, liposomes with 0.1 μg vA317 replicon (naked: 1 μg); for 2wp1 pool 1 / 2wp1 pool 2: 2 weeks after first dose; for 2wp2 pool 1 / 2wp2 pool 2: 2 weeks after second dose
# Description: BALB/c were immunized with liposomes comprising DSPC, cholesterol, and various lipids of the invention (or, for comparison, the cationic lipid 1,2-dilinoleyloxy-N,N-dimethyl-3-aminopropane or ‘DLinDMA’). The liposomes encapsulated 0.1 μg of “vA317” self-replicating RNA replicon which encodes respiratory syncytial virus F protein (see WO2012/031043). […] Doses were given either on days 0 & 21 or days 0 & 42. Immune responses were assessed 2 weeks after each dose (2wp1, 2wp2), and in some cases also at 4 weeks after the second dose (4wp2).
# [5] = pKa measurement of cationic lipid (TNS fluorescence); type: physicochemical; details: pKa of the cationic lipid of formula (I), Table 4
# Description: Unless indicated otherwise, all pKa's referred to herein were measured at standard temperature and pressure. Also, unless otherwise indicated, all references to pKa are references to pKa measured using the following technique. 2 mM solution of lipid in ethanol was prepared by weighing the lipid and then dissolving it in ethanol. 0.3 mM solution of fluorescent probe TNS in ethanol:methanol 9:1 was prepared by first making 3 mM solution of TNS in methanol and then diluting to 0.3 mM with ethanol. An aqueous buffer containing 200 mM sodium phosphate dibasic and 100 mM citric acid was prepared. […] Using the Hamilton Microlab Star high throughput liquid handler and Hamilton run control software Software, 7.5 uL of probe/lipid mix were added to 242.5 uL of buffer in a 1 mL 96 well plate (model NUNC 260252, […] Nunc International). This was done with all twelve buffers. After mixing in 1 mL 96 well plate, 100 uL of each probe/lipid/buffer mixture was transferred to a 250 uL black with clear bottom 96 well plate (model COSTAR 3904, Corning). The fluorescence measurements are carried out on the SpectraMax M5 spectrophotometer using software SoftMax pro 5.2 and following parameters: After the measurement, the background fluorescence value of an empty well on the 96 well plate was subtracted from each probe/lipid/buffer mixture. The fluorescence intensity values were then normalized to the value at lowest pH. The normalized fluorescence intensity vs. pH chart was then plotted in the Microsoft Excel software. The twelve points were connected with a smooth line. The point on the line at which the normalized fluorescence intensity was equal to 0.5 was found. […] The pKa determined using this method is precise to about 0.1 pKa units.
# human leptin = assay: Mouse intravenous tail vein injection of modified synthetic leptin mRNA, human leptin ELISA; type: in vivo, C57BL/6 mouse; details: human leptin in mouse plasma, 10 μg leptin mRNA, 24 h
# Description: Before the tail vein injection, mouse body weights were recorded and diet weighted, with mice grouped according to their body weights. Mice were prepared by warming them under a heating lamp for ˜2 minutes, with the mice about 12 inches from heat lamp.
# For the tail vein injection procedure, the mice were placed in a restrainer and their tails cleaned with 70% alcohol. A 27 gauge needle (Becton Dickinson, Catalogue #305109) connected with a 1 ml syringe (Becton Dickinson, Catalogue #309659) was inserted into the tail vein, with bevel facing up, and the syringe plunger was pulled backwards to ensure blood is drawn into the syringe. The desired volume of modified synthetic leptin mRNA was injected by hand with moderate pressure and speed. The needle was then withdrawn and bleeding stopped by adding pressure to injection site with gauze.
# Single housed, 8-9 week old, male C57BL/6 mice were used for the in vivo study. FPLC purified modified synthetic leptin mRNA (SEQ ID NO: 5) in which the uridines were substituted with pseudouridine was packaged in a cationic lipid (N:P molar ratio=8:1) and then were diluted in injectable saline at a dose of 10 μg per average group body weight.
# On day 0, animals were weighed and sorted according to average body weight. Mice were dosed, and food intake (FI) was recorded, on each of days 1-7 and days 9, 11, and 16.
# Human leptin in mouse plasma was measured by ELISA. Antibodies purchased from the R&D Systems duoset (Cat# DY398E, part#840279 for capture antibody and part#840280 for detection antibody) were reconstituted using PBS and titered, again using PBS. The capture antibody was coated at 4 ug/ml in 30 ul/well on a white Nunc® Maxisorp 384 well plate (Cat#460372). After an overnight incubation at room temperature the capture antibody was aspirated and the plate blocked for 2 hours at room temperature with 90 ul/well of KPL milk blocker (Cat#50-82-00). Once the incubation was completed the plate was aspirated and recombinant standards and samples were added to the plate at 30 ul/well for 2 hours at 37° C. while shaking at 600 rpm. Sample/standard dilutions were made using casein sample diluent. Washing/aspiration 3 times with 100 ul/well followed, using Teknova plate wash solution (Cat# P1192). Next, detection antibody was diluted using casein detection antibody diluent to 12.5 ng/ml and added at 30 ul/well for 2 hours room temperature. After this incubation, the plate was washed again and a solution of poly-streptavidin-HRP (Cat#21140) at a 1:1250 dilution in HRP dilution buffer was added to each well (30 ul/well) and incubated for 30 minutes room temperature. A final wash/aspiration removed the HRP solution and a chemiluminescent substrate was added at 30 ul/well (Cat#1859678 & 1859679). The plate was quickly read using a SpectramaxM5 plate reader with a 50 ms integration time. The dynamic range of the ELISA is from 100-2,000 pg/ml (6.25-125 pM) of human leptin.
# [6] = FVII siRNA LNP, Chol/DSPC/PEG-DMG, molar ratio 45/44/9/2, Z-average
# [7] = FVII siRNA LNP, Chol/DSPC/S010, molar ratio 45/44/9/2, Z-average
# [8] = PLK1-424 siRNA LNP, Chol/DSPC/S010 45/44/9/2
# [9] = FVII siRNA LNP, Chol/DSPC/PEG-DMG, molar ratio 45/44/9/2
# [10] = FVII siRNA LNP, Chol/DSPC/S010, molar ratio 45/44/9/2
# [11] = PLK1-424 siRNA LNP, Chol/DSPC/PEG-DSG 45/44/9/2
# [12] = PLK1-424 siRNA LNP, Chol/DSPC/S011 45/44/9/2
smiles,measurement,setting,value
"CCCCCCCC(=O)OCC(CCOc1cc(CN(C)C)cc(OCCC(COC(=O)CCCCCCC)OC(=O)CCCCCCC)c1)OC(=O)CCCCCCC (centres unmarked) [Example 91, 4,4′-((5-((dimethylamino)methyl)-1,3-phenylene)bis(oxy))bis(butane-1,2-diyl)tetraoctanoate]",Size (nm),[1]; [6],124.3 nm
same,Size (nm),[1]; [7],111.9 nm
same,Size (nm),[1]; [8],136.1 nm
same,PDI,[2]; [9],0.06
same,PDI,[2]; [10],0.053
same,PDI,[2]; [8],0.032
same,LS411 KD 3 × 3 mg/Kg,PLK-1 mRNA; LNP Chol/DSPC/S010 45/44/9/2,45%
same,KD FVII 0.3 mg/kg,[3],99.0%
"CCCCCCCC(=O)OCCCCCCCCOc1cc(CN(C)C)cc(OCCCCCCCCOC(=O)CCCCCCC)c1 [Example 42, ((5-((dimethylamino)methyl)-1,3-phenylene)bis(oxy))bis(octane-8,1-diyl)dioctanoate]",LS411 KD 3 × 3 mg/Kg,PLK-1 mRNA; LNP Chol/DSPC/S010 45/44/9/2,50%
same,KD FVII 0.03 mg/kg,[3],92.8%
"CCCCC/C=C\C/C=C\CCCCCCCC(=O)OCCCCOc1cc(CN(C)C)cc(OCCCCOC(=O)CCCCCCC/C=C\CCCCCCCC)c1 [Example 63, (9Z,12Z)-4-(3-((dimethylamino)methyl)-5-(4-(oleoyloxy)butoxy)phenoxy)butyl octadeca-9,12-dienoate]",Size (nm),[1]; [7],91.66 nm
same,Size (nm),[1]; [11],108.6 nm
same,PDI,[2]; [10],0.057
same,PDI,[2]; [11],0.047
same,LS411 KD 3 × 3 mg/Kg,PLK-1 mRNA; LNP Chol/DSPC/PEG-DSG 45/44/9/2,66%
same,KD FVII 0.03 mg/kg,[3],75%
"CCCCC/C=C\C/C=C\CCCCCCCC(=O)Oc1cc(COC(=O)CCN(C)C)cc(OC(=O)CCCCCCC/C=C\C/C=C\CCCCC)c1 [Example 26, (9Z,9′Z,12Z,12′Z)-5-(((3-(dimethylamino)propanoyl)oxy)methyl)-1,3-phenylene bis(octadeca-9,12-dienoate)]",Size (nm),[1]; [6],104.3 nm
same,Size (nm),[1]; [7],121.6 nm
same,2wp1 pool 1,[4],4
same,2wp1 pool 2,[4],4
same,2wp2 pool 1,[4],10
same,2wp2 pool 2,[4],10
same,4wp2 pool 1,[4]; 4 weeks after second dose,10
same,4wp2 pool 2,[4]; 4 weeks after second dose,10
same,pKa,"[5]; probe TNS, read-out: pKa",6.45
same,PDI,[2]; [9],0.04
same,PDI,[2]; [10],0.046
same,KD FVII 0.3 mg/kg,[3],58.1%
"CCCCCCCC(=O)OCCCCCC(=O)OCc1cc(COC(=O)CCCCCOC(=O)CCCCCCC)cc(CN(C)C)c1 [Example 85, (((5-((dimethylamino)methyl)-1,3-phenylene)bis(methylene))bis(oxy))bis(6-oxohexane-6,1-diyl)dioctanoate]","Leptin expression IV-C57BI/6, 24 h",human leptin,1.78 ng/mL
"CCCCC/C=C\C/C=C\CCCCCCCCOc1cc(CN(C)C)cc(OCCCCCCCC/C=C\C/C=C\CCCCC)c1 [Example 2, 1-(3,5-bis((9Z,12Z)-octadeca-9,12-dien-1-yloxy)phenyl)-N,N-dimethylmethanamine]",Size (nm),[1]; [6],97.4 nm
same,Size (nm),[1]; [7],92.85 nm
same,Size (nm),[1]; [12],88.19 nm
same,2wp1 pool 1,[4],217
same,2wp1 pool 2,[4],259
same,2wp2 pool 1,[4],12785
same,2wp2 pool 2,[4],8232
same,pKa,[5]; listed as Ex. 2,5.46
same,PDI,[2]; [9],0.04
same,PDI,[2]; [10],0.067
same,PDI,[2]; [12],0.1
same,KD FVII 0.03 mg/kg,[3],55%
same,KD FVII 0.3 mg/kg,[3],95.5%
"CCCCCCCC(=O)OC[C@@H](CCOc1cc(CN(C)C)cc(OCC[C@@H](COC(=O)CCCCCCC)OC(=O)CCCCCCC)c1)OC(=O)CCCCCCC [Example 92, (R)-4-(3-((S)-3,4-bis(octanoyloxy)butoxy)-5-((dimethylamino)methyl)phenoxy)butane-1,2-diyldioctanoate]","Leptin expression IV-C57BI/6, 24 h",human leptin,1.34 ng/mL
same,KD FVII 0.03 mg/kg,[3],89.4%
